Assay results taken from US12729377B2, “RNAi agents and compositions for inhibiting expression of angiopoietin-like 3 (ANGPTL3), and methods of use” (Arrowhead Pharmaceuticals, Inc., priority 2017, dated 2026).
In the oligonucleotide strings, read from the 5' end, every base follows the letter of its sugar. An asterisk marks phosphorothioate; unmarked linkages are phosphodiester. Other units and linkages are bracketed, terminal groups are in braces. A string of capitals states the bases alone. {NAG37} = tridentate N-acetyl-galactosamine targeting ligand, structure (NAG37)s; [invAb] = inverted abasic unit; m = 2'-O-methyl; f = 2'-fluoro

Columns and labels:
ANGPTL3 gene [1] = assay: Example 10: serum triglycerides in mice; format: in vivo; conditions: 0.5 mg/kg single SC injection day 1, female C57bl/6 mice, n=3, ratio to D5W control
Description: (§1) To assess the in vivo activity of further ANGPTL3 RNAi agents that are designed to target position 304 on the ANGPTL3 gene, six- to eight-week-old female C57bl/6 mice were used. Pre-dose serum samples were taken at day −1 after a four hour fast. At day 1, each mouse was given a single subcutaneous administration of 200 μl containing 0.5 mg/kg (mpk) of an ANGPTL3 RNAi agent in D5W (dextrose in 5% water), or control (D5W) with no RNAi agent, according to the dosing groups recited in Table 47.
(§2) Each of the RNAi agents included a modified sequence and an N-acetyl-galactosamine-containing targeting ligand conjugated to the 5′ terminal end of the sense strand. (See Tables 3, 4, and 5 for modified sequences and targeting ligand structures). As noted above, each of the ANGPTL3 RNAi agents dosed in this study included nucleotide sequences designed to target the ANGPTL3 gene at position 304. The injections were performed between the skin and muscle (i.e. subcutaneous injections) into the loose skin over the neck and shoulder area. Three (3) mice in each group were tested (n=3). Serum was collected on days 8, 15, 22, 29, and for some groups on day 36 (i.e., Groups 1, 2, and 9-13 only). Mice were fasted for four hours prior to each collection. ANGPTL3 protein levels in serum were measured by ELISA assay (R&D Systems), according to the manufacturer's recommendations. Triglycerides, total cholesterol, high-density lipoprotein (HDL), and low-density lipoprotein (LDL) in serum were measured on a Cobas® Integra 400 (Roche Diagnostics), according to the manufacturer's recommendations.
(§3) The ANGPTL3 protein levels, triglyceride levels, total cholesterol levels, HDL levels, and LDL levels for each animal were normalized. For normalization, the level of ANGPTL3 protein, triglyceride, HDL, and total cholesterol, respectively, for each animal at a time point, was divided by the pre-treatment level of expression in that animal (in this case at day −1) to determine the ratio of expression “normalized to pre-treatment.” Expression at a specific time point was then normalized to the D5W control group by dividing the “normalized to pre-treatment” ratio for an individual animal by the mean “normalized to pretreatment” ratio of all mice in the D5W control group.

ANGPTL3 protein = assay: Example 13: serum ANGPTL3 protein in HFCS diet-fed Rhesus monkeys; format: in vivo; conditions: for Avg ANGPTL3 Protein Normalized to Pre-Treatment (Fasted): 4.0 mg/kg sc on day 1 and day 29
Description: ANGPTL3 RNAi agent AD05488 was further evaluated in high-fructose corn syrup (HFCS) diet-fed Rhesus monkeys. Rhesus monkeys were placed on an HFCS diet 37 days prior to dosing. These animals were known to develop increased plasma triglycerides greater than 180 mg/dL on the HFCS diet. On day 1 and again on day 29, four (4) Rhesus monkeys were administered a subcutaneous injection containing 4.0 mg/kg of ANGPTL3 RNAi agent AD05488 formulated in saline (n=4). Two additional Rhesus monkeys were administered normal saline control.
Fasted blood samples were drawn for analysis, and serum samples were analyzed on days-8 (predose), 8, 15, 21, 29, and 36. ANGPTL3 expression levels, triglycerides, total cholesterol, high-density lipoprotein (HDL), and low-density lipoprotein (LDL) in serum were measured on a Cobas® Integra 400 (Roche Diagnostics), according to the manufacturer's recommendations.
The ANGPTL3 protein levels, triglyceride levels, total cholesterol levels, HDL levels, and LDL levels for each animal were normalized. For normalization, the level of ANGPTL3 protein, triglyceride, HDL, and total cholesterol, respectively, for each animal at a time point, was divided by the pre-treatment level of expression in that animal (in this case at day −8) to determine the ratio of expression “normalized to pre-treatment.”

ANGPTL3 gene [2] = assay: Example 9: serum total cholesterol in cynomolgus monkeys; format: in vivo, cynomolgus macaque (Macaca fascicularis); conditions: 2.0 mg/kg single SC injection day 1, cynos, n=3
Description: Additional ANGPTL3 RNAi agents were evaluated in cynomolgus monkeys. On day 1, cynomolgus macaque (Macaca fascicularis) primates (also referred to herein as “cynos”) were administered a single subcutaneous injection of 0.3 mL/kg (approximately 2-3 mL volume, depending on animal mass) containing 2.0 mg/kg of an ANGPTL3 RNAi agent, which included either AD05488, AD05743, AD05775, or AD05841, each formulated in saline. […] ANGPTL3 RNAi agents AD05488, AD05743, and AD05775 included nucleotide sequences designed to target position 304 of the ANGPTL3 gene. ANGPTL3 RNAi agent AD05841 included nucleotide sequences designed to target position 1035 of the ANGPTL3 gene.
Three (3) cynos in each group were tested (n=3). Blood samples were drawn and serum samples were analyzed on days −14 (predose), −7 (predose), 1 (pre-dose), 8, 15, 22, 29, and 35. Cynos were fasted overnight prior to each collection. ANGPTL3 protein levels in serum were measured by ELISA assay (R&D Systems), according to the manufacturer's recommendations. Triglycerides, total cholesterol, high-density lipoprotein (HDL), and low-density lipoprotein (LDL) in serum were measured on a Cobas® Integra 400 (Roche Diagnostics), according to the manufacturer's recommendations.
The ANGPTL3 protein levels, triglyceride levels, total cholesterol levels, HDL levels, and LDL levels for each animal were normalized. For normalization, the level of ANGPTL3 protein, triglyceride, HDL, and total cholesterol, respectively, for each animal at a time point, was divided by the average pre-treatment level of expression in that animal (in this case at days −14, −7, and 1) to determine the ratio of expression “normalized to pre-treatment.”

ANGPTL3 gene [3] = assay: Example 10: serum LDL in mice; format: in vivo, C57bl/6 mice; conditions: 0.5 mg/kg sc
Description: as §1, §2, §3

Q: What does the source list for “AD05488: RNAi agent duplex: antisense AM07235-AS, sense AM07234-SS (antisense mU*fA*mC*fUmGfAmUfCmAfAmAfUmAfUmGfUmUfGmAfG*mC; sense {NAG37}*[invAb]*mGmCmUmCmAmAmCmAfUfAfUmUmUmGmAmUmCmAmGmUmA*[invAb])”?
A: Average Triglycerides Normalized to Pre-Treatmen and Control (ANGPTL3 gene [1]; Day 8): 0.646; Average Triglycerides Normalized to Pre-Treatmen and Control (ANGPTL3 gene [1]; Day 15): 0.669; Average Triglycerides Normalized to Pre-Treatmen and Control (ANGPTL3 gene [1]; Day 22): 0.723; Average Triglycerides Normalized to Pre-Treatmen and Control (ANGPTL3 gene [1]; Day 29): 0.739; Average Triglycerides Normalized to Pre-Treatmen and Control (ANGPTL3 gene [1]; Day 36): 0.843; Avg ANGPTL3 Protein Normalized to Pre-Treatment (Fasted) (ANGPTL3 protein; Day 8): 0.229; Avg ANGPTL3 Protein Normalized to Pre-Treatment (Fasted) (ANGPTL3 protein; Day 15): 0.154; Avg ANGPTL3 Protein Normalized to Pre-Treatment (Fasted) (ANGPTL3 protein; Day 21): 0.116; Avg ANGPTL3 Protein Normalized to Pre-Treatment (Fasted) (ANGPTL3 protein; Day 29): 0.114; Avg ANGPTL3 Protein Normalized to Pre-Treatment (Fasted) (ANGPTL3 protein; Day 36): 0.064; reduction in ANGPTL3 protein compared to pre-treatment (ANGPTL3 protein; each of the measured time points, 4.0 mg/kg on days 1 and 29, HFCS diet-fed Rhesus monkeys): significant reduction; Average Total Cholesterol Normalized to Pre-Treatment (ANGPTL3 gene [2]; Day 8): 0.823; Average Total Cholesterol Normalized to Pre-Treatment (ANGPTL3 gene [2]; Day 15): 0.744; Average Total Cholesterol Normalized to Pre-Treatment (ANGPTL3 gene [2]; Day 22): 0.709; Average Total Cholesterol Normalized to Pre-Treatment (ANGPTL3 gene [2]; Day 29): 0.687; Average Total Cholesterol Normalized to Pre-Treatment (ANGPTL3 gene [2]; Day 35): 0.659; Avg LDL Normalized to Pre-Treatment and Control (ANGPTL3 gene [3]; Day 8): 0.836; Avg LDL Normalized to Pre-Treatment and Control (ANGPTL3 gene [3]; Day 15): 0.969; Avg LDL Normalized to Pre-Treatment and Control (ANGPTL3 gene [3]; Day 22): 0.901; Avg LDL Normalized to Pre-Treatment and Control (ANGPTL3 gene [3]; Day 29): 0.762; Avg LDL Normalized to Pre-Treatment and Control (ANGPTL3 gene [3]; Day 36): 0.863
